# Results: article PMC9452538, “The antimicrobial peptide LI14 combats multidrug-resistant bacterial infections” (Communications Biology, 2022)
# Ends that are not written are not given here.
# Tests used:
# Assay in all cases: microbe, parasite or virus in culture
# Set-up in all cases: Antibacterial activity of LI14 derivates: unit not given here
# [1] = test system: S. aureus ATCC 29213; assay type: cell-based, Staphylococcus aureus; details: S. aureus 29213; unit not given
# Protocol: (§1) An antimicrobial activity study was conducted on all peptides against a panel of laboratory bacteria, including ATCC source and clinical isolates with resistance determinants. According to CLSI2021 guidelines, we tested the minimum inhibitory concentrations (MICs) of peptides using standard broth micro-dilutions. Briefly, bacteria grown to exponential phase were diluted in 1:1000 to MHB, subsequently, equivalent amounts of bacterial suspension (1.5 × 10^6 CFUs/mL) were mixed with different concentrations of peptides in a sterilized 96-well microtiter plate (Corning).
# [2] = test system: MRSA T144; assay type: cell-based, Staphylococcus aureus; details: MRSA T144; unit not given
# Protocol: as §1
# [3] = test system: E. coli ATCC 25922; assay type: cell-based, Escherichia coli; details: E. coli 25922; unit not given
# Protocol: as §1
# [4] = test system: E. coli B2 (blaNDM-5 + mcr-1); assay type: cell-based, Escherichia coli; details: E. coli B2; unit not given
# Protocol: as §1
Substance,Antibacterial activity of LI14 derivates [1],Antibacterial activity of LI14 derivates [2],Antibacterial activity of LI14 derivates [3],Antibacterial activity of LI14 derivates [4]
"LKKLCRILKKLCAI-NH2 [LI14-A13, Ala substitute of LI14, position 13]",16,16,8,4
"LKKLCRILKKACRI-NH2 [LI14-A11, Ala substitute of LI14, position 11]",64,64,16,8
"LKKLCRIAKKLCRI-NH2 [LI14-A8, Ala substitute of LI14, position 8]",128,64,16,8
"LAKLCRILKKLCRI-NH2 [LI14-A2, Ala substitute of LI14, position 2]",8,16,8,4
"LKKLCRILKKLCRA-NH2 [LI14-A14, Ala substitute of LI14, position 14]",16,32,16,4
"LKKLCRILKALCRI-NH2 [LI14-A10, Ala substitute of LI14, position 10]",16-32,16,16-32,8
"LKKLCRILAKLCRI-NH2 [LI14-A9, Ala substitute of LI14, position 9]",16,16,8-16,4
"AKKLCRILKKLCRI-NH2 [LI14-A1, Ala substitute of LI14, position 1]",16,64,16,4
"LKKACRILKKLCRI-NH2 [LI14-A4, Ala substitute of LI14, position 4]",64,64,16-32,8
"LKALCRILKKLCRI-NH2 [LI14-A3, Ala substitute of LI14, position 3]",8-16,8,16,8
LKKLCRILKKLARI-NH2 [LI14-A12],8,16,2,4
"LKKLCRALKKLCRI-NH2 [LI14-A7, Ala substitute of LI14, position 7]",64,64,32,16
LKKLARILKKLCRI-NH2 [LI14-A5],16,16,4,4
